Measurements from patent US6444640B1, “Compositions of trail and DNA damaging drugs and uses thereof” (Ludwig Institute for Cancer Research, priority 1999, dated 2002).
Where two headings read alike, the source gives them in different places.

Columns and labels:
U87MG cells [1] = test: Apoptosis of U87MG cells (TUNEL, flow cytometry) with caspase inhibitor; type: cell-based, human
Protocol: In these experiments, the mechanism by which the cell death caused by combination of TRAIL and DNA damaging agents was studied further. U87MG cells were plated overnight, and then treated with either TRAIL alone (0.1 ug/ml), CDDP alone (4 ug/ml) VP16 alone (16 ug/ml) TRAIL and CDDP, at the recited doses, or TRAIL plus VP16, at the recited doses. The cells were treated for 44 hours, collected, fixed in 2% formaldehyde, and permeabilized in 0.05% Tween-20 in bovine serum albumin solution.
The cells were then incubated with TUNEL (terminal deoxynucleotidyl transferase mediated nick end labeling) solution, at 37° C. for 1 hour. Those cells which stained positively with fluorescein were analyzed via flow cytometry. The morphology of the dead cells was typical of apoptosis.
TRAIL is known to induce apoptosis through activation of effector caspases. See, e.g., Wu, et al., Nature Genet 17: 141-143 (1997); Wiley et al., Immunity 3: 673-682 (1995); Pitti, et al., J. Biol Chem 271: 12687-12690 (1996); Pan, et al., Science 277: 815-818 (1997); Sheridan, et al., Science 277: 818-821 (1997); Walczak, et al., EMBO J. 16: 5386-5397 (1997).

[2] = tested on: poly (ADP-ribase) polymerase; test: Western blot for PARP cleavage (activation of effector caspases); type: cell-based, human; conditions: 24 hours after treatment
Protocol: The direct assessment of activation of effector caspases was examined by assaying for cleavage of poly (ADP-ribase) polymerase, or “PARP”, after treatment with combinations of a DNA damaging agent (CDDP or VP16), TRAIL, DR5-Fc or Fc, and the caspase inhibitor, Z-Asp-CH2-DCB. This was determined via Western blotting, where 20 ug of clarified protein lysate was loaded onto SDS gels 24 hours after treatment, electrophoresed, transferred to membranes, and then probed with monoclonal antibodies against PARP. Full length PARP has a molecular weight of about 116 kilodalton and, when cleaved, one fragment is 85 kilodaltons.

U87MG cells [3] = test: MTT survival assay; conditions: for cell viability, single agent: TRAIL 0.1 ug/ml, CDDP 4 ug/ml, VP16 16 ug/ml, 24 hours
Protocol: (§1) Experiments were then carried out to determine if combining TRAIL with the damaging agents would enhance cytotoxicity. The method employed to determine if combining TRAIL with the damaging agents would enhance cytotoxicity was the 3-(4,5-dimethylthiazol-2-yl)-2,5-diphenyl tetrazolum bromide (“MTT”) survival assay, described by Mosmann, et al., J. Immunol. […] Cells (U87MG) were plated, at 1×10^4 cells/well in 96 well microtiter plates overnight.
(§2) The cytotoxic effect of TRAIL, in combination with one of the DNA damaging agents discussed supra, i.e., CDDP, VP16, as BCNU was tested, by either adding TRAIL alone, the drug alone, or TRAIL plus the drug, in a two component combination, with DR5-Fc, referred to supra, or with Fc. The dosages were as provided supra.

DR5 = test: Northern blot of DR5 expression in human glioma cell lines after drug treatment; type: cell-based; conditions: for basal level expression of ~4.4Kb DR5 transcripts after contact with drug: U87MG, A1207, U178 cells, Northern blot
Protocol: This first set of experiments was designed to determine whether chemotherapeutic agents which are used in treating gliomas could upregulate expression of DR5 in human glioma cell lines. This was apreliminary step to determine if wild type p53, which is found in de novo glioblastomas, could be exploited.
The human glioblastoma cell lines U87MG, A1207, and U178 were used. The first two of these cell lines are homozygous for wild type p53, while U178 cells express a wild type allele, and an allele with a mutation at codon 271. Samples of cells were treated with one of cis-diamminedichloroplatinum (II) (“CDDP” hereafter), ectoposide (“VP16” hereafter), or chloroethyl)-BCNU. The U87MG and U178 cells received either 0, 1, or 4 ug/ml doses of CDDP; 0, 8, or 16 ug/ml doses of VP16, or 0, 100, or 200 μM doses of BCNU. The A1207 cells received 0, 5, or 20 ug/ml of CDDP, 0, 8 or 16 ug/ml of VP16, or 0, 100, or 200 μM doses of BCNU.
The cells were treated with the drug at an indicated dosage for 16 hours, after which they were harvested, and total RNA was extracted, following standard methods. Then, 15 ug samples were size fractionated on a 1% agarose formaldehyde gel, and transferred to a nylon membrane. These samples were then probed with a human DR5 cDNA probe, 583 base pairs long. This had beenz prepared via RT-PCR of total RNA of U87MG cells using:
The hybridization was carried out at 68° C. for 2 hours, followed by washing in 0.5×SSC and 0.1% SDS at 58° C. for 15 minutes. The membranes were then exposed to film at −80° C. with an intensifying screen. In order to confirm that RNA had in fact been loaded, 28SrRNA was stained with methylene blue.

[4] = tested on: astrocytes from p53 knockout mice; conditions: in vitro; cited from earlier work
U87MG cells [5] = tested on: U87MG cells
Protocol: as §1, §2

U87MG cells [6] = test: Subcutaneous U87MG tumors in nude mice, Example 7; type: in vivo; conditions: single agent
Protocol: To test this, U87MG cells (2×10^6) were suspended in 0.1 ml PBS, and then injected subcutaneously into the right flank of 4-5 week old female nude mice, of BALB/C background. Tumors were permitted to become established, and then grow for 20 days, reaching an approximate innate volume of 150 mm^3. Then, either CDDP (3 mg/kg), or sterile normal saline was administered intraperitoneally on days 20,21,22,30,31, and 32. Mice also received either fusion protein FLAG-TRAIL (200 ug), or a mock control. The FLAG-TRAIL fusion protein described by Degli-Esposti, et al., J. Exp. Med 186: 1165-1170 (1997), incorporated by reference, was prepared via standard recombinant methods. Mock controls were prepared by carrying out the same protocol used to produce the FLAG-TRAIL, but without a vector which encoded the fusion protein. Cell lysate was used as the control. The FLAG-TRAIL or control was administered via intraveneous and intraperitoneal injections 16 hours and 24 hours following CDDP treatment, i.e., on days 21,22,23, 31,32 and 33. Growth of the tumors was measured at 2 day intervals, in accordance with Huang, et al., J. Biol Chem 272: […] (1997).

Molecule: O=C(O)C[C@H](NC(=O)OCc1ccccc1)C(=O)COC(=O)c1c(Cl)cccc1Cl [Z-Asp-CH2-DCB]
- apoptosis on treatment with TRAIL, one of CDDP or VP16, and the caspase inhibitor (U87MG cells [1]): did not induce apoptosis
- effect on PARP cleavage elicited by TRAIL and CDDP or VP16 [2]: inhibited
- effect on synergistic cytotoxicity of TRAIL plus DNA damaging agent (U87MG cells [3]; added to TRAIL plus CDDP or VP16): at levels obtained for single drugs

Molecule: COc1cc([C@@H]2c3cc4c(cc3[C@@H](O[C@@H]3O[C@@H]5CO[C@@H](C)O[C@H]5[C@H](O)[C@H]3O)[C@H]3COC(=O)[C@H]23)OCO4)cc(OC)c1O [VP16, ectoposide]
- basal level expression of ~4.4Kb DR5 transcripts after contact with drug (DR5): increased significantly
- PARP cleavage product (85 kilodaltons) [2]: not
- cell viability, single agent (U87MG cells [3]): sublethal

Molecule: O=NN(CCCl)C(=O)NCCCl [BCNU, 1,3 bis (2-chloroethyl)-1-nitrosourea]
- basal level expression of ~4.4Kb DR5 transcripts after contact with drug (DR5): lesser effect
- sensitivity of p53 knockout astrocytes compared with wild type astrocytes [4]: more sensitive

Molecule: DR5-Fc: a soluble fusion protein that competes for TRAIL
- effect on PARP cleavage elicited by TRAIL and CDDP or VP16 [2]: inhibited
- effect on synergistic cytotoxicity of TRAIL plus DNA damaging agent (U87MG cells [5]): abolished

Molecule: extracellular domain of DR4 expressed as a fusion protein with Fc: extracellular domain of DR4 expressed as a fusion protein with Fc
- effect on synergistic cytotoxicity of TRAIL plus DNA damaging agent (U87MG cells [5]): same elimination of synergistic cytotoxicity

Molecule: N.N.[Cl][Pt][Cl] [CDDP, cis-diamminedichloroplatinum (II)]
- basal level expression of ~4.4Kb DR5 transcripts after contact with drug (DR5): increased significantly
- time of contact needed for induction of DR5 (DR5; glioblastoma cell lines): 16 h
- PARP cleavage product (85 kilodaltons) [2]: not
- tumor growth compared with combined drugs (U87MG cells [6]): grew significantly faster
- cell viability, single agent (U87MG cells [3]): sublethal

B1: TRAIL: tumor necrosis factor related apoptosis inducing ligand; given in vivo as fusion protein FLAG-TRAIL (protein)
chain: TSEETISTVQEKQQNISPLVRERGPQRVAAHITGTRGRSNTLSSPNSKNEKALGRKINSWESSRSGHSFLSNLHLRNGELVIHEKGFYYIYSQTYFRFQEEIKENTKNDKQMVQYIYKYTSYPDPILLMKSARNSCWSKDAEYGLYSIYQGGIFELKENDRIFVSVTNEHLIDMDHEASFFGAFLVG
- PARP cleavage product (85 kilodaltons) [2]: not
- tumor growth compared with combined drugs (U87MG cells [6]): grew significantly faster
- cell viability, single agent (U87MG cells [3]): no effect on cell viability
- reduction of amount of TRAIL necessary for efficacy in combination versus alone (U87MG cells [3]; in combination with DNA damaging agent): about 100 fold
